Test system: A2780cis spheroids
Test: 3D spheroid assay, A2780cis
Assay type: cell-based, human
Conditions: FEN1i/cisplatin combination vs cisplatin or FEN1i monotherapy
Method: with ice cold PBS and fixed in 70% ethanol for 1h at -20°C. After removal of the fixative solution by centrifugation, cells were stained with 2 µg/ml of phospho-Histone (γH2AX) Ser139 (16202A, Millipore, UK) to detect DSBs.
Cell cycle progression: Cells were treated with 20 µg/ml RNase A (12091021, Invitrogen) and then 10 µg/ml Propidium Iodide (P4170, Sigma Aldrich) was added to determine the cell cycle distribution. The samples were analysed on a Beckman-Coulter FC500 flow cytometer using a 488nm laser for excitation and emission data for PI collected using a 620nm bandpass filter (FL3) and a 525nm bandpass filter (FL1) for FITC-anti-phospho-Histone H2A.X.
Apoptosis detection: Annexin V detection kit (556547, BD Biosciences) was used to quantify apoptotic cells. Briefly, cells were trypsinized, washed with PBS and the cellular pellet was re-suspended in Anexin Binding Buffer (1×). […] All the samples were analysed on a Beckman-Coulter FC500 flow cytometer. The percentage of apoptotic cells was determined (late apoptotic = FITC-Annexin V positive, PI positive early apoptotic = FITC-Annexin V positive, PI negative; live cells = FITC-Annexin V negative, PI negative) and compared for untreated and treated samples. […]
To quantify cell viability, LIVE/DEAD Viability/Cytotoxicity Kit (L3224, Thermo Fisher Scientific) was used. […] At least 10 spheroids were measured. […]

**Q.** `Cc1csc2c1c(=O)n(O)c(=O)n2-c1ccccc1` [PTPD, 3-hydroxy-5-methyl-1-phenylthieno [2,3 d]pyrimidine-2,4(1H,3H)-dione] was tested. Which “cell death in 3D-spheroids” value did it give?
**A.** Its value is “increased cell death”.

— publication PMC8070745, “FEN1 Blockade for Platinum Chemo-Sensitization and Synthetic Lethality in Epithelial Ovarian Cancers” (Cancers, 2021)
